The target in assay [1] is T1, recombinant human 5-HT6 receptor (Homo sapiens, UniProt P50406).
T1 construct: expressed in transfected cells
Description: Radioligand binding, [3H]LSD competition in HEK293 cell membranes. To be noted: [3H]LSD displacement, pH 7.4 at 37° C., read-out: pKi for the 5-HT6 receptor (converted). The protocol:
(§1) The binding activity of compounds of this invention in vitro was determined as follows. Duplicate determinations of 5-HT6 ligand affinity were made by competing for binding of [^3H]LSD in cell membranes derived from HEK293 cells stably expressing recombinant human 5-HT6 receptor. Duplicate determinations of 5-HT2A ligand affinity were made by competing for binding of [^3H]Ketanserin (3-(2-(4-(4-fluorobenzoyl)piperidinol)ethyl)-2,4(1H,3H)-quinazolinedione) in cell membranes derived from CHO-Ki cells stably expressing recombinant human 5-HT2A receptor. Membranes were prepared from HEK 293 cell lines by the method described by Monsma et al., Molecular Pharmacology, Vol. 43 pp. 320-327 (1993), and from CHO-K1 cell lines as described by Bonhaus et al., Br J Pharmacol. June; 115(4):622-8 (1995).
(§2) For estimation of affinity at the 5-HT6 receptor, all determinations were made in assay buffer containing 50 mM Tris-HCl, 10 mM MgSO4, 0.5 mM EDTA, 1 mM ascorbic acid, pH 7.4 at 37° C., in a 250 microliter reaction volume. […]
(§3) Assay tubes containing [^3H] […] LSD or [^3H]Ketanserin were determined as radioactive counts per minute using Packard TopCount.
(§4) Displacement of [^3H]LSD or [^3H]Ketanserin from the binding sites was quantified by fitting concentration-binding data to a 4-parameter logistic equation: […]

Assay [2] deals with T2, recombinant human 5-HT2A receptor (Homo sapiens, UniProt P28223).
T2 construct: expressed in transfected cells
T2 sequence (P28223 whole entry): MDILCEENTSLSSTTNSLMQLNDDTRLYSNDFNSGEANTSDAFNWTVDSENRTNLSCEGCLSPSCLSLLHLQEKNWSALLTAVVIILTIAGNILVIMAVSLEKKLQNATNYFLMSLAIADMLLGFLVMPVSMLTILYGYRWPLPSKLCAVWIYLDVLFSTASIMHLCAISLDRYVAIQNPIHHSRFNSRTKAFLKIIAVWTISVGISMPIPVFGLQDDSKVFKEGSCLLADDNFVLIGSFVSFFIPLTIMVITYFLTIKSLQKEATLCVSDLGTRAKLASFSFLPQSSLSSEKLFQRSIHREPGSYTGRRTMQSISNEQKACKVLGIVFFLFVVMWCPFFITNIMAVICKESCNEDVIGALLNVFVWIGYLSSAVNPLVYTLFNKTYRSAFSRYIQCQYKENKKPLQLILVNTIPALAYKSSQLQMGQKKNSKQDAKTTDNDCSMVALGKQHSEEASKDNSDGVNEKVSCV
Briefly: Radioligand binding, [3H]Ketanserin competition in CHO-K1 cell membranes. To be noted: [3H]Ketanserin displacement, pH 7.4 at 32° C., read-out: pKi for the 5-HT2A receptor (converted). As for the experimental part: as §1, §2, §3, §4

Molecules are shown by their SMILES.

Two compounds from patent US7741326B2, “Indole and benzofuran 2-carboxamide derivatives and uses thereof” (Roche Palo Alto LLC, priority 2006, dated 2010) can be followed below.

T1 sequence (P50406 whole entry): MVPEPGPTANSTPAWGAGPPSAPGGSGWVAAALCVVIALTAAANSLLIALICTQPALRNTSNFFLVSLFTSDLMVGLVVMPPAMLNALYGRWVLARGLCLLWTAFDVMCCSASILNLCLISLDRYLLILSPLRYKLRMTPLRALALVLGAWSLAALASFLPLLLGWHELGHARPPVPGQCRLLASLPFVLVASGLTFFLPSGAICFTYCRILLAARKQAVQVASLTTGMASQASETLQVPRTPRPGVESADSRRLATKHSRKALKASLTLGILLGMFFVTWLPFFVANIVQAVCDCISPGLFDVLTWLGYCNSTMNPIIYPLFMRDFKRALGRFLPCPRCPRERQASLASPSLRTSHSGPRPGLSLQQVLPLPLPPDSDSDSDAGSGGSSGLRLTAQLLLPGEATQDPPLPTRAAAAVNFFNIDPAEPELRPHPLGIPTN

On to `CNC(=O)c1cc2c(N3CCNCC3)cccc2n1Cc1cccc(F)c1` [Compound 26, 1-(3-Fluoro-benzyl)-4-piperazin-1-yl-1H-indole-2-carboxylic acid methylamide], for which the Ki in assay [1] is about 0.126 nM.

Take `Cc1cc(N2CCNCC2)c2oc(C(N)=O)c(Cc3cccc(F)c3)c2c1` [Compound 31, 3-(3-Fluoro-benzyl)-5-methyl-7-piperazin-1-yl-benzofuran-2-carboxylic acid amide]: the Ki in assay [2] is about 1.23 nM.
